This note sets out measurements from US9149532B2, “Pharmaceutical composition” (DAIICHI SANKYO COMPANY, LIMITED, priority 2007, dated 2015).

Series [1] is described as follows: Absorbability after oral administration. Format: in vivo. The conditions noted are these: orally administered to a subject.
A short description of series [2]: Solubility of compound (1) in aqueous solutions. The class given is physicochemical.

`CN1CCc2nc(C(=O)N[C@@H]3C[C@@H](C(=O)N(C)C)CC[C@@H]3NC(=O)C(=O)Nc3ccc(Cl)cn3)sc2C1` [compound (1), N^1-(5-chloropyridin-2-yl)-N^2-(4-[(dimethylamino)carbonyl]-2-{[(5-methyl-4,5,6,7-tetrahydrothiazolo[5,4-c]pyridin-2-yl)carbonyl]amino}cyclohexyl)ethanediamide]: the absorbability result in series [1] is “excellent absorbability”. The solubility entry in series [2] (neutral pH aqueous solution (e.g., neutral buffer solution)) was “solubility decreases”; in series [2] (strong acidic aqueous solution), “high solubility”.
